This is an account of results in paper PMC10451377, “Rationally Designed Pyrimidine Compounds: Promising Novel Antibiotics for the Treatment of Staphylococcus aureus-Associated Bovine Mastitis” (Antibiotics, 2023).

In data set [1] the test system is Staphylococcus aureus CMRSA-10. Description: Broth microdilution MIC. The settings on record: CMRSA10, S. aureus CMRSA-10, read-out: Broth Microdilution MIC. The format is cell-based. From the text: (§1) Reference strains for this study (S. aureus ATCC 29213, ATCC 29740 [bovine mastitis strain Newbould], S. epidermidis ATCC 12228, E. coli ATCC 35695, E. faecalis ATCC 29212) were obtained from the American Type Culture Collection (ATCC, Rockville, MD). S. aureus strains CMRSA-10 and CMRSA-2 were obtained from the Laboratoire de santé publique du Québec (LSPQ, Sainte-Anne-de-Bellevue, QC, Canada) and are Canadian CA-MRSA USA-300 and HA-MRSA USA-100 clones, respectively. The strain E. coli imp4213 (lptD), used as a control in MIC assays, is a derivative of E. coli ATCC 35695 (E. coli MC4100) with an increased membrane permeability. […] Other MRSA strains used in this study are clinical isolates of human origin obtained from the microbiology laboratory of the Centre Hospitalier Universitaire de Sherbrooke (CHUS, Sherbrooke, QC, Canada). Bovine mastitis strains (S. aureus, S. chromogenes, S. haemolyticus, S. hominis, S. simulans) were obtained from the Canadian Bovine Mastitis and Milk Quality Research Network (CBRQMN, St-Hyacinthe, QC, Canada). Among these strains, S. aureus 2117 is a high producer of biofilm and was used in the biofilm-eradication assay. S. epidermidis isolates were provided by Centre de Recherche en Infectiologie (CRI) de Québec (Québec, QC, Canada).

Data set [2] relates to Staphylococcus aureus CMRSA-2. The experiment in a line: Broth microdilution MIC. Type of data set: cell-based. The settings on record: CMRSA2, S. aureus CMRSA-2, read-out: Broth Microdilution MIC.
Excerpt: as §1

For data set [3], the system named is Escherichia coli ΔlptD4213. The experiment in a line: microbe, parasite or virus in culture. The settings on record: read-out: Broth Microdilution MIC. Type of data set: cell-based.
Excerpt: as §1

Data set [4] concerns Bacillus subtilis xpt-lacZ. The experiment in a line: Broth microdilution MIC. The settings on record: B. subtilis xpt-lacZ, read-out: Broth Microdilution MIC. Type of data set: cell-based.
Data set [5] deals with S. aureus Newbould, S. aureus CMRSA-10, S. epidermidis ATCC 12228. The experiment in a line: Kill kinetics. The format is cell-based, staphylococci. On the procedure: Time-kill kinetics studies were performed to define the bactericidal effect of PC206. S. aureus Newbould, CMRSA-10, or S. epidermidis ATCC 12228 were inoculated at a density of approximately 5 × 10^5 CFU/mL in CAMHB in the absence or presence of PC206 and were incubated with agitation (225 rpm) for 24 h at 35 °C. Right before inoculation and 0.5, 1, 2, 4, 8 and 24 h thereafter, bacterial cultures were sampled, serially diluted, and plated on tryptic soya agar (TSA) plates that were incubated at 35 °C for 24 h to determine viable counts with a detection limit of 2 log10 CFU/mL.

Data set [6] deals with S. aureus bovine strain 2117 embedded in preformed biofilm. Description: Biofilm-eradication test (MBEC assay). The format is cell-based, Staphylococcus aureus. The settings on record: 24 h exposure. The procedure:
The viability of bacteria in preformed biofilms treated with PC206 was evaluated using the MBEC assay™ system (formerly the Calgary Biofilm Device). The device consists of a plastic lid with 96 pegs and a 96-well plate. […] Plates were incubated at 35 °C for 24 h with agitation (120 rpm). […] The pegs were washed three times with PBS and the biofilm was sonicated for 10 min, and then transferred into a new 96-well base plate. The 96-well plate was centrifuged for 5 min at 180 g to recover the detached bacteria.

Data set [7] in a line: MTT assay. Type of data set: cell-based. The settings on record: human, HepG2 cells.
Data set [8] can be described thus: MTT assay. The format is cell-based. The settings on record: bovine, MAC-T cells.
The test system of data set [9] is HepG2 and MAC-T cells versus S. aureus Newbould. Description: Selectivity ratios over both assays and both cell lines. The format is cell-based. The settings on record: over MTT and LDH assays. The procedure: All CC50 values are reported in Table 3, and plots are provided in the Supplementary Information (Supplementary Figure S2). PC371 had no effect on cell viability even at the highest concentrations tested (CC50 > 600 μM) in both the MTT and the LDH assay and for the two cell lines tested. For the three other compounds, in both cell lines and both assays, a correlation was observed between the effect on cell viability and the length of their aliphatic chain. CC50 of PC372 (5 carbons) was higher than that of PC206 (6 carbons), and both were higher than that of PC383 (10 carbons). Indeed, for the MAC-T cells in the MTT assay, the values were >600 μM (PC372), 317 μM (PC206), and 13.5 μM (PC383). Again, for the MAC-T cell line, the values for the LDH assay were >600 μM (PC372 and PC206) and 23.6 μM (PC383). Similar results were obtained with the HepG2 cells. […] Overall, the MAC-T cells tolerated better exposure to the compounds than the HepG2 cells. To assess the selectivity of the PC2 analogs towards S. aureus, selectivity ratios were calculated. These ratios were obtained by dividing the cytotoxicity CC50 values of an analog by its MIC against S. aureus Newbould. It was not possible to calculate the selectivity ratio for PC371 as its CC50 and MIC values exceeded the maximum values tested.

Data set [10] relates to S. aureus Newbould (ATCC 29740). Description: Murine mastitis model. The settings on record: two intramammary doses of 500 µg.
In data set [11] the test system is Staphylococcus aureus ATCC 29213. Description: Broth microdilution MIC. The settings on record: ATCC29213, read-out: Broth Microdilution MIC.
Data set [12] concerns Staphylococcus epidermidis ATCC 12228. Description: Broth microdilution MIC. The settings on record: ATCC12228, read-out: Broth Microdilution MIC.
Data set [13] deals with Escherichia coli ATCC 35695. The experiment in a line: Broth microdilution MIC. The settings on record: ATCC35695, read-out: Broth Microdilution MIC.
For data set [14], the system named is all reference staphylococci strains tested, including MRSA. The experiment in a line: Broth microdilution MIC, summary over reference staphylococci. The settings on record: Staphylococcus aureus, read-out: MIC ranging, against all reference staphylococci strains tested.

≈ marks a conversion by molar mass, not a printed value.

Take `CCCCCCNc1cc(N)nc(N)n1` [PC206]: the MIC in data set [1] is 4 µg/mL (≈ 19.1 µM); in data set [2] it was 8 µg/mL (≈ 38.2 µM); in [3], above 128 µg/mL; in data set [4] it was 128 µg/mL (≈ 612 µM); in [11], 8 µg/mL (≈ 38.2 µM); in [12], 4 µg/mL (≈ 19.1 µM). The MIC in [13] is above 128 µg/mL; in [14] it was 4 to 8 µg/mL (≈ 19.1 to 38.2 µM). The “Reduction of bacterial viable counts at 24 h compared to the initial inoculum” value in data set [5] (4× MIC) is 0.5–1.5 log10 CFU/mL. Besides, the “Qualification from kill kinetics” value in data set [5] (up to 4× MIC, 24 h) was “bacteriostatic agent”. In addition, the “Reduction in CFU/peg compared to the untreated biofilm” value in data set [6] (32 µg/mL) is reported as 1.28 log10; in data set [6] (128 µg/mL), 2.40 log10; in [6] (512 µg/mL), 5.43 log10. Also, the CC50 at 24 h was determined as 160 ± 31 µM in the data set “MTT assay [7]”, 317 ± 43 µM in “MTT assay [8]” (24 h) and 66 µg/mL in “MTT assay [8]” (converted from μM). In addition, in data set [9], the “Selectivity ratio (CC50/MIC against S. aureus Newbould), overall” value is recorded as “above 3.9”. Also, the “Tolerability in mice and mammary gland tissues” value in data set [10] is “No inflammation, damage, nor adverse effects were observed”. Also, the “Difference in median bacterial counts versus untreated mice” value in data set [10] (1 and 4 h after infection, glands harvested 14 h post-infection) is recorded as 1.24 log10 CFU/g of gland.
